# Reference: patent publication US20090221690A1, “Pharmaceutical Composition for the Prevention/Treatment of Bone Disorders and a Process for the Preparation Thereof” (COUNCIL OF SCIENTIFIC AND INDUSTRIAL RESEARCH, priority 2006, published 2009)
# Columns and labels:
# osteoblasts [1] = assay: Osteogenic activity of isolated compounds based on alkaline phosphatase expression, MTT and mineralisation in vitro; type: cell-based
# Excerpt: K051, K052, K054, K080, K082 (isolated from n-butanol soluble fraction) and K095 (isolated from chloroform soluble fraction) (FIGS. 11-15; Tables 10-11).
# [2] = tested on: osteoblasts cultured on sterile bovine bone slices; assay: Mineralisation by osteoblasts cultured on bovine bone slices, Alizarin red staining; type: cell-based, Balb/c mouse; conditions: osteoblasts on bovine bone slices, 15 days; alone or in combination; FIGS. 14 and 15
# Procedure: (§1) Neonatal mouse calvarial cell cultures are prepared as described previously (Endocrinology 139:4743) using slight modification. Briefly, for primary osteoblast cell cultures, frontal and parietal bones from Balb/c mouse neonates (1-3 day old) are digested in 0.1% collagenase/0.1% dispase in α-MEM to obtain 5 sequential digests. The second through fifth digests are combined and grown to confluence at 37° C. and 5% CO2 in air in α-MEM, supplemented with 10% fetal bovine serum (FBS), 2 mM glutamine, 100 U/ml penicillin-streptomycin, Non-essential amino acid solution and sodium pyruvate. The effect of test agents is analysed using the following tests:
# (§2) Cells are seeded onto sterile bovine bone slices in 96-well plate and treated with the culture medium containing α-MEM, supplemented with 10% fetal bovine serum, 2 mM glutamine, 100 U/ml penicillin-streptomycin, non-essential amino acid solution, sodium pyruvate, 10 mM P-glycerophosphate and 50 μg/ml ascorbic acid. Culture medium is changed every alternate day. At termination of the culture, cells are washed twice with PBS, fixed in cold 70% ethanol for 1 h and washed once with water and stained with 40 mM Alizarin red (pH 4.7) for 30 min and then washed in PBS to remove excess staining.
# as §2, with “In case of osteoblasts” for “Cells are”, “slices, the cells are cultured” for “slices”, “in A-MEM” for “and treated with the culture medium containing α-MEM,”, “p-glycerophosphate” for “P-glycerophosphate”, “acid in the absence or presence of test compounds or their mixtures.” for “acid.”, “culture after 15 days,” for “culture,”
# osteoblast cells = assay: Quantification of mineralization in osteoblasts (Alizarin red, acetic acid extraction); type: cell-based, Balb/c mouse; conditions: osteoblasts cultured 7 days; vs vehicle control; FIG. 13
# Procedure: as §1
# For quantification of mineralization which is measured with increased deposition of nascent calcium in osteoblast cells, cells were cultured in the presence of test compounds for 7 days and stained with Alizarin red. Alizarin red was extracted with acetic acid and the intensity of stain, which is directly proportion to the extent of mineralisation, is read at 405 nm.
# osteoblasts [3] = assay: Quantification of alkaline phosphatase activity in osteoblasts; type: cell-based, Balb/c mouse; set-up: alkaline phosphatase activity: unit not given here; conditions: 48 h; for alkaline phosphatase activity: Control 1.87 ± 0.20, Mean±SEM; for expression of alkaline phosphatase vs vehicle control: 10^−11 M to 10^−5 M
# Procedure: as §1
# p-Nitrophenol phosphate is a colorless substrate which is hydrolysed to colored p-nitrophenol by alkaline phosphatase enzyme. Rate of hydrolysis of p-nitrophenol phosphate is proportional to enzyme present in sample. […] Findings reveal that all the five pure compounds nos.
# primary osteoblasts = assay: MTT assay for cell proliferation, primary osteoblast cell culture; type: cell-based, Balb/c mouse; conditions: for Osteoblast cell proliferation (MTT assay) / osteoblast cell proliferation vs vehicle control: 24 h; for Osteoblast cell proliferation (MTT assay): Vehicle 0.60 ± 0.06, Mean±SEM; for osteoblast cell proliferation vs vehicle control: 10^−11 M to 10^−5 M
# Procedure: as §1
# MTT assay is a common assay used for assessing cell proliferation where tetrazolium salt is reduced to formazone crystals by the mitochondrial dehydrogenase enzyme, which are then dissolved in DMSO. More the number of metabolically active cells more will be the formazone crystals formed. Briefly, osteoblast cells are maintained in α-MEM medium supplemented with 10% FCS and 1% antibiotic solution in 96 well plate. When the cells attain 40% confluency, they are treated in presence or absence of test agents in 2% FCS supplemented media for 24 h. Twenty-four hours thereafter, MTT salt is added to the cells. After 4 h, the formazone crystals formed are dissolved in DMSO and readings taken at wavelength of 570 nm.
# This assay is based on the ability of viable cells to reduce tetrazolium salt to form formazone crystals by mitochondrial dehydrogenase enzyme. In MTT assay, osteoblasts are maintained in α-MEM medium supplemented with 10% FCS and 1% antibiotic solution in 96 well plate. When the cells attain 40% confluency, they are treated in presence or absence of test agents in 2% FCS supplemented media for 24 h. Twenty-four hours thereafter, MTT salt is added to the cells. After 4 h, the formazone crystals formed due to reduction of tetrazolium salt by mitochondrial dehydrogenase enzyme are dissolved in DMSO and readings taken at wavelength of 570 nm. All the five pure compounds nos.
# [4] = tested on: Ishikawa (human uterine glandular epithelial carcinoma) cell line; assay: MTT proliferation assay in Ishikawa cell line; type: cell-based; conditions: 10 nM and 1 μM; Ishikawa cells; FIG. 2
# [5] = tested on: MCF-7 (human cancer breast) cell line; assay: MTT proliferation assay in MCF-7 cell line; type: cell-based; conditions: 10 nM and 1 μM; MCF-7 cells; FIG. 2
# rat fetal bones = assay: Total alkaline phosphatase activity in cultured rat fetal bones; type: cell-based; set-up: dose or concentration left out as unconfirmed; conditions: rat fetal bones cultured for 48 h
# Procedure: […] The homogenate is centrifuged at 5000 rpm for 10 min at 4° C. The supernatant is used as the enzyme solution. The activity of alkaline phosphatase is measured using ALP kit (Roche, Germany) and p-nitrophenol phosphate as substrate.
osteogenic activity (osteoblasts [1]),Compound,intensity of alizarin red staining (rate of new bone formation) [2],mineralisation quantified by alizarin extraction method (osteoblast cells),alkaline phosphatase activity (osteoblasts [3]; 10^−5 M),alkaline phosphatase activity (osteoblasts [3]; 10^−6 M),alkaline phosphatase activity (osteoblasts [3]; 10^−7 M),alkaline phosphatase activity (osteoblasts [3]; 10^−8 M),alkaline phosphatase activity (osteoblasts [3]; 10^−9 M),alkaline phosphatase activity (osteoblasts [3]; 10^−10 M),expression of alkaline phosphatase vs vehicle control (osteoblasts [3]),alkaline phosphatase activity (osteoblasts [3]; 10^−11 M),Osteoblast cell proliferation (MTT assay) (primary osteoblasts; 10^−5 M),Osteoblast cell proliferation (MTT assay) (primary osteoblasts; 10^−6 M),Osteoblast cell proliferation (MTT assay) (primary osteoblasts; 10^−7 M),Osteoblast cell proliferation (MTT assay) (primary osteoblasts; 10^−8 M),Osteoblast cell proliferation (MTT assay) (primary osteoblasts; 10^−9 M),Osteoblast cell proliferation (MTT assay) (primary osteoblasts; 10^−10 M),osteoblast cell proliferation vs vehicle control (primary osteoblasts),Osteoblast cell proliferation (MTT assay) (primary osteoblasts; 10^−11 M),further results
promising osteogenic activity,"COc1ccc(-c2coc3cc(O)ccc3c2=O)cc1O [Compound K054, 7, 3′-dihydroxy-4′-methoxyisoflavone]",increased intensity of alizarin red staining,enhanced mineralisation,2.65 ± 0.09,3.25 ± 0.07,3.32 ± 0.06,3.35 ± 0.03,3.32 ± 0.09,3.22 ± 0.12,increased expression of alkaline phosphatase,3.01 ± 0.25,1.40 ± 0.02,1.24 ± 0.01,1.26 ± 0.07,1.24 ± 0.06,1.06 ± 0.04,0.88 ± 0.09,enhanced osteoblast cell proliferation,0.75 ± 0.06,
promising osteogenic activity,"COc1ccc(-c2coc3cc(O)ccc3c2=O)cc1 [Compound K080, 7-hydroxy, 4′-methoxy-isoflavone]",increased intensity of alizarin red staining,enhanced mineralisation,3.45 ± 0.06,3.40 ± 0.02,3.46 ± 0.06,3.30 ± 0.01,3.33 ± 0.02,3.27 ± 0.08,increased expression of alkaline phosphatase,3.38 ± 0.02,1.49 ± 0.03,1.55 ± 0.05,1.43 ± 0.09,1.47 ± 0.02,1.58 ± 0.09,1.35 ± 0.03,enhanced osteoblast cell proliferation,1.25 ± 0.09,
promising osteogenic activity,"COc1ccc(-c2c(C)oc3cc(O)ccc3c2=O)cc1 [Compound K082, 2-methyl, 7-hydroxy, 4′-methoxy isoflavone]",increased intensity of alizarin red staining,enhanced mineralisation,,,,,,,,,,,,,,,,,

# The remaining lines, values behind:
Compound,osteogenic activity (osteoblasts [1]),intensity of alizarin red staining (rate of new bone formation) [2],mineralisation quantified by alizarin extraction method (osteoblast cells),alkaline phosphatase activity (osteoblasts [3]; 10^−5 M),alkaline phosphatase activity (osteoblasts [3]; 10^−6 M),alkaline phosphatase activity (osteoblasts [3]; 10^−7 M),alkaline phosphatase activity (osteoblasts [3]; 10^−8 M),alkaline phosphatase activity (osteoblasts [3]; 10^−9 M),alkaline phosphatase activity (osteoblasts [3]; 10^−10 M),expression of alkaline phosphatase vs vehicle control (osteoblasts [3]),alkaline phosphatase activity (osteoblasts [3]; 10^−11 M),Osteoblast cell proliferation (MTT assay) (primary osteoblasts; 10^−5 M),Osteoblast cell proliferation (MTT assay) (primary osteoblasts; 10^−6 M),Osteoblast cell proliferation (MTT assay) (primary osteoblasts; 10^−7 M),Osteoblast cell proliferation (MTT assay) (primary osteoblasts; 10^−8 M),Osteoblast cell proliferation (MTT assay) (primary osteoblasts; 10^−9 M),Osteoblast cell proliferation (MTT assay) (primary osteoblasts; 10^−10 M),osteoblast cell proliferation vs vehicle control (primary osteoblasts),Osteoblast cell proliferation (MTT assay) (primary osteoblasts; 10^−11 M),further results
"COc1cc(O)c2c(=O)c(-c3ccc(O)cc3O)coc2c1 [Compound K051, 2′,4′,5-trihydroxy-7-methoxy isoflavones]",promising osteogenic activity,increased intensity of alizarin red staining,enhanced mineralisation,3.26 ± 0.07,3.24 ± 0.09,3.23 ± 0.11,3.41 ± 0.12,3.50 ± 0.07,3.59 ± 0.08,increased expression of alkaline phosphatase,3.63 ± 0.04,1.32 ± 0.05,1.34 ± 0.09,1.33 ± 0.01,1.32 ± 0.04,1.03 ± 0.03,0.92 ± 0.05,enhanced osteoblast cell proliferation,0.85 ± 0.05,
"COc1ccc2c(=O)c(-c3ccc(O)cc3)coc2c1 [Compound K052, 4′-hydroxy, 7-methoxy-isoflavone]",promising osteogenic activity,increased intensity of alizarin red staining,enhanced mineralisation,2.29 ± 0.24,3.01 ± 0.09,3.05 ± 0.10,3.20 ± 0.06,3.07 ± 0.10,3.01 ± 0.26,increased expression of alkaline phosphatase,3.17 ± 0.06,1.19 ± 0.01,1.86 ± 0.13,1.70 ± 0.15,1.73 ± 0.09,1.70 ± 0.08,1.43 ± 0.05,enhanced osteoblast cell proliferation,1.45 ± 0.23,"relative potency in osteoblast proliferation (MTT) (primary osteoblasts; order K052, K080, K095, K051, K054): most potent"
O=C(c1ccc(OCCN2CCCCC2)cc1)c1c(-c2ccc(O)cc2)sc2cc(O)ccc12 [Raloxifene],,,,,,,,,,,,,,,,,,,,proliferation [4]: increased proliferation was observed; proliferation [5]: increased proliferation was observed in only the Ishikawa cell line
O=P([O-])([O-])OC(CO)CO.[Na+].[Na+] [Sodium β-glycerophosphate],,,,,,,,,,,,,,,,,,,,"Total alkaline phosphatase activity, percent increase (percent of vehicle control group) (rat fetal bones): 28%; Total alkaline phosphatase activity, percent increase (percent of vehicle control group) (rat fetal bones; listed as sodium p-glycerophosphate): 28%"
